From patent US7235554B2, “3-heteroaryl-3,5-dihydro-4-oxo-4H-pyridazino[4,5-b] indole-1-acetamide derivatives, preparation and use thereof in medicaments” (Sanofi-Aventis, priority 2002, dated 2007)

melting point	Compound
253 to 255 °C	Cc1ccc(-n2nc(CC(=O)N(C)C)c3c4ccc(Cl)cc4n(C)c3c2=O)cn1 [Compound 8, 7-chloro-N,N,5-trimethyl-4-oxo-3-(6-methylpyridin-3-yl)-3,5-dihydro-4H-pyridazino[4,5-b]indole-1-acetamide]
267 to 270 °C	CN(C)C(=O)Cc1nn(-c2ccncc2)c(=O)c2c1c1ccc(F)cc1n2C.Cl
275 to 279 °C	CN(C)C(=O)Cc1nn(-c2ccncc2)c(=O)c2c1c1ccc(Cl)cc1n2C.Cl
250 to 252 °C	CN(C)C(=O)Cc1nn(-c2cccnc2)c(=O)c2c1c1ccc(Cl)cc1n2C.Cl
222 to 223 °C	CN(C)C(=O)Cc1nn(-c2ccccn2)c(=O)c2c1c1ccc(F)cc1n2C [Compound 1, 7-fluoro-N,N,5-trimethyl-4-oxo-3-(pyridin-2-yl)-3,5-dihydro-4H-pyridazino[4,5-b]indole-1-acetamide]
244 to 250 °C	CN(C)C(=O)Cc1nn(-c2cccnc2)c(=O)c2c1c1ccc(F)cc1n2C.Cl
199 to 200 °C	CCN(CC)C(=O)Cc1nn(-c2cccnc2)c(=O)c2c1c1ccc(Cl)cc1n2C [Compound 9, 7-chloro-N,N-diethyl-5-methyl-4-oxo-3-(pyridin-3-yl)-3,5-dihydro-4H-pyridazino[4,5-b]indole-1-acetamide]
255 to 256 °C	CN(C)C(=O)Cc1nn(-c2cccnc2)c(=O)c2c1c1ccc(Cl)cc1n2C [Compound 5, 7-chloro-N,N,5-trimethyl-4-oxo-3-(pyridin-3-yl)-3,5-dihydro-4H-pyridazino[4,5-b]indole-1-acetamide]
183 to 184 °C	CN(C)C(=O)Cc1nn(-c2ccccn2)c(=O)c2c1c1ccc(Cl)cc1n2C [Compound 4, 7-chloro-N,N,5-trimethyl-4-oxo-3-(pyridin-2-yl)-3,5-dihydro-4H-pyridazino[4,5-b]indole-1-acetamide]
